Patent publication US9096615B2, “Bridged bicyclic amino thiazine dioxide compounds as inhibitors of beta-secretase and methods of use thereof” (AMGEN INC., priority 2013, dated 2015)
Where two headings read alike, the source gives them in different places.

Experiments:
Abeta 40 = assay: In vivo inhibition of beta-secretase: percent Abeta 40 reduction in CSF and brain; set-up: species or system rat; settings: 10 mpk, after 4 hrs
Source text: In Vivo Inhibition of Beta-Secretase
Several animal models, including mouse, rat, dog, and monkey, may be used to screen for inhibition of beta-secretase activity in vivo following administration of a test compound sample. Animals used in this invention can be wild type, transgenic, or gene knockout animals. For example, the Tg2576 mouse model, prepared and conducted as described in Hsiao et al., 1996, Science 274, 99-102, and other non-transgenic or gene knockout animals are useful to analyze in vivo inhibition of Amyloid beta peptide (Abeta) production in the presence of inhibitory test compounds. Generally, 2 to 18 month old Tg2576 mice, gene knockout mice or non-transgenic animals are administered test compounds formulated in vehicles, such as cyclodextran, phosphate buffers, hydroxypropyl methylcellulose or other suitable vehicles. One to twenty-four hours following the administration of compound, animals are sacrificed, and brains as well as cerebrospinal fluid (CSF) and plasma are removed for analysis of A-beta levels and drug or test compound concentrations (Dovey et al., 2001, Journal of Neurochemistry, 76, 173-181) Beginning at time 0, animals are administered by oral gavage, or other means of delivery such as intravenous injection, an inhibitory test compound of up to 100 mg/kg in a standard, conventional formulation, such as 2% hydroxypropyl methylcellulose, 1% Tween80. A separate group of animals receive 2% hydroxypropyl methylcellulose, 1% Tween80 alone, containing no test compound, and serve as a vehicle-control group. At the end of the test period, animals are sacrificed and brain tissues, plasma or cerebrospinal fluid are collected. Brains are either homogenized in 10 volumes (w/v) of 0.2% diethylamine (DEA) in 50 mM NaCl (Best et al., 2005, Journal of Pharmacology and Experimental Therapeutics, 313, 902-908), or in 10 volumes of 0.5% TritonX-100 in Tris-buffered saline (pH at about 7.6). Homogenates are centrifuged at 355,000 g, 4° C. for 30 minutes. CSF or brain supernatants are then analyzed for the presence of A-beta peptide by specific sandwich ELISA assays based on ECL (Electrochemiluminescence) technology. For example, rat Abeta40 is measured using biotinylated-4G8 (Signet) as a capture antibody and Fab40 (an in-house antibody specific to the C-terminal of Abeta40) as a detection antibody. For example, 4 hours after administration of 30 mg/kg oral dose of the test compound in 2% hydroxypropyl methylcellulose, 1% Tween80 (pH2.2) to 200 g male Sprague Dawley rats, amyloid beta peptide levels are measured for reduction by X % and Y % in cerebrospinal fluid and brain, respectively, when compared to the levels measured in the vehicle-treated or control […].
Actual vehicles used: Oral: 2% HPMC, 1% Tween80, pH 2.2
• IV: 5% EtOH, 45% Propylene glycol in 5% Dextrose
The compounds of the invention may be shown to reduce the formation and/or deposition of amyloid beta peptide in the cerebrospinal fluid (CSF) as well as in the brain of a mouse or rat at either 3 mpk, 10 mpk or 30 mpk (mpk=mg compound per kg weight of the animal) dosing concentrations after 4 hrs.

BACE1 = BACE1 (Homo sapiens, UniProt P56817); assay: In vitro enzymatic BACE FRET assay; type: biochemical
BACE1, sequence (P56817 46-501, species assumed): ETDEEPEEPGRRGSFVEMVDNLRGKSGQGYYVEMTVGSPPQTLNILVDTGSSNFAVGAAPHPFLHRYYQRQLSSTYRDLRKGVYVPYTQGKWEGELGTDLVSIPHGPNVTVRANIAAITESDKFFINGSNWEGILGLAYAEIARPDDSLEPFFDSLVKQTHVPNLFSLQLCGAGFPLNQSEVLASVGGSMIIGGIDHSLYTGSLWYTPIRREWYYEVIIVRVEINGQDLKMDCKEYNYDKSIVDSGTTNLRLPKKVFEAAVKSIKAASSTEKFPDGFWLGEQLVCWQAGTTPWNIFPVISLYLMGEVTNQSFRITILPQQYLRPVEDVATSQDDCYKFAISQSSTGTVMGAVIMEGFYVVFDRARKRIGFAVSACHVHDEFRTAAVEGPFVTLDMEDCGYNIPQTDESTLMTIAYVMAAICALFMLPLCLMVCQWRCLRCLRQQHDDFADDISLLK
Outline: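 BACE (0.2 nM) pre-incubated 1 h with serially diluted inhibitor in 0.05 M acetate pH 4.2, 10% DMSO, 100 uM genapol; 50 nM FRET peptide substrate added, 1 h incubation. Stopped with Tris to neutral pH; fluorescence read (ex 488, […]).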

[1] = tested on: Aβ40 in conditioned medium of cells stably expressing Amyloid Precursor Protein (APP); assay: In vitro BACE cell-based assay (HEK cell assay, Aβ40 sandwich ELISA); settings: Homo sapiens, HEK293
Outline: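 APP-stable cells were cultured 24 h at 37 °C, then given compound as 10-point dose-response (top 100 μM or 10 μM; 0.1% DMSO final) for 24 h. Aβ40 in conditioned medium was measured by sandwich ELISA (pAb40 capture, biotinylated 6E10 detection, Eu time-resolved fluorescence). IC50 from percent inhibition versus concentration.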

Cathepsin D (Cat D) = target: T1, Cathepsin D (Cat D) (Homo sapiens, UniProt P07339); assay: In vitro enzymatic Cathepsin D (Cat D) FRET assay; type: biochemical; settings: read-out: CatD IC50
T1 construct: made in house; host or cells: CHO cells
T1 sequence (P07339 65-412, species assumed): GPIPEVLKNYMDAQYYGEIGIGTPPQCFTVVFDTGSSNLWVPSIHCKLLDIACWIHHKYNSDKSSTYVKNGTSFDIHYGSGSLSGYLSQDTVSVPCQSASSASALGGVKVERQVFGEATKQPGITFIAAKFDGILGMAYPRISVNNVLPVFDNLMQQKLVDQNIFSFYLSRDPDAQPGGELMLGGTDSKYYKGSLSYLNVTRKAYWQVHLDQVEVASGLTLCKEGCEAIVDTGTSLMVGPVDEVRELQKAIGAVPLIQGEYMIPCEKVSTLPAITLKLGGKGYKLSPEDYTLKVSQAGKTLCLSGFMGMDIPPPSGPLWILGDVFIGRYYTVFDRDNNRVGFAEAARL
Outline: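 Recombinant human Cat D expressed in CHO cells, 9 nM, pre-incubated 1 h with inhibitor in 0.05 M citrate pH 3.5, 10% DMSO, 5 mM CHAPS. Reaction started with 20 nM FRET peptide substrate, run 1 h, stopped with Tris to neutral pH; fluorescence read at ex 500/em 580 nm.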

[2] = Abeta 40, rat CSF, read-out: % reduction of rat CSF levels at 10 pmk
[3] = Abeta 40, rat brain, read-out: % reduction of rat brain levels at 10 mpk
[4] = read-out: BACE1 FRET assay IC50
[5] = Aβ40, 24 h incubation, read-out: HEK cell assay IC50
[6] = average IC50, read-out: BACE1 Enzyme assay IC50
[7] = average IC50, read-out: BACE1 cell assay IC50

Row | IC50 (BACE1; [4]) | IC50 [1, 5] | IC50 (Cathepsin D (Cat D)) | IC50 (BACE1; [6]) | IC50 [1, 7] | IC50 (Cathepsin D (Cat D); average IC50, first procedure) | SMILES | inhibition in vivo at 10 mg/kg (Abeta 40; [2]) | inhibition in vivo at 10 mg/kg (Abeta 40; [3])
1 | 0.002 µM | 0.002 µM | 1740 µM | – | – | – | Cc1cc(Cl)cnc1C(=O)Nc1ccc(F)c([C@@]2(C)N=C(N)[C@@]3(C)CC[C@@H]2S3(=O)=O)c1 [Example 22, N-(3-((1S,2R,5R)-4-Amino-2,5-dimethyl-8,8-dioxido-8-thia-3-azabicyclo[3.2.1]oct-3-en-2-yl)-4-fluorophenyl)-5-chloro-3-methylpicolinamide] | 76% | 66%
2 | – | – | – | 0.061 µM | 0.253 µM | 5340 µM | C[C@]12CC[C@H]([C@@](C)(c3cc(Nc4ncc(F)c5cc(OCC6CC6)cnc45)ccc3F)N=C1N)S2(=O)=O [Example 136, N-(3-((1R,2R,5S)-4-amino-2,5-dimethyl-8,8-dioxido-8-thia-3-azabicyclo[3.2.1]oct-3-en-2-yl)-4-fluorophenyl)-3-(cyclopropylmethoxy)-5-fluoro-1,7-naphthyridin-8-amine] | – | –
3 | – | – | – | 0.408 µM | 0.327 µM | 1180 µM | COC[C@]12CC[C@H]([C@@](C)(c3cc(Nc4ncnc5cc(Cl)cnc45)ccc3F)N=C1N)S2(=O)=O [Example 141, N-(3-((1R,2R,5S)-4-amino-5-(methoxymethyl)-2-methyl-8,8-dioxido-8-thia-3-azabicyclo[3.2.1]oct-3-en-2-yl)-4-fluorophenyl)-7-chloropyrido[3,2-d]pyrimidin-4-amine] | – | –
4 | – | – | – | 0.093 µM | 0.482 µM | > 400 µM | COC[C@]12CC[C@H]([C@@](C)(c3cc(NC(=O)c4ncc(Cl)cc4C)ccc3F)N=C1N)S2(=O)=O [Example 142, N-(3-((1R,2R,5S)-4-amino-5-(methoxymethyl)-2-methyl-8,8-dioxido-8-thia-3-azabicyclo[3.2.1]oct-3-en-2-yl)-4-fluorophenyl)-5-chloro-3-methyl-2-pyridinecarboxamide] | – | –
5 | – | – | – | 0.002 µM | 0.001 µM | > 400 µM | Cn1ccc(COc2cnc3c(Nc4ccc(F)c([C@@]5(C)N=C(N)[C@@]6(C)CC[C@@H]5S6(=O)=O)c4)nccc3n2)n1 [Example 147, N-(3-((1S,2R,5R)-4-amino-2,5-dimethyl-8,8-dioxido-8-thia-3-azabicyclo[3.2.1]oct-3-en-2-yl)-4-fluorophenyl)-2-((1-methyl-1H-pyrazol-3-yl)methoxy)pyrido[3,4-b]pyrazin-5-amine] | – | –

The next lines start with the molecule.

Row | SMILES | IC50 (BACE1; [4]) | IC50 [1, 5] | IC50 (Cathepsin D (Cat D)) | IC50 (BACE1; [6]) | IC50 [1, 7] | IC50 (Cathepsin D (Cat D); average IC50, first procedure) | inhibition in vivo at 10 mg/kg (Abeta 40; [2]) | inhibition in vivo at 10 mg/kg (Abeta 40; [3])
6 | Cc1cc(C(F)(F)F)cnc1C(=O)Nc1ccc(F)c([C@@]2(C)N=C(N)[C@@]3(C)CC[C@@H]2S3(=O)=O)c1 [Example 24, N-(3-((1S,2R,5R)-4-Amino-2,5-dimethyl-8,8-dioxido-8-thia-3-azabicyclo[3.2.1]oct-3-en-2-yl)-4-fluorophenyl)-3-methyl-5-(trifluoromethyl)picolinamide] | 0.005 µM | 0.001 µM | 591 µM | – | – | – | 72% | 62%
7 | C[C@]12CC[C@H]([C@@](C)(c3cc(Nc4ncnc5cc(Cl)cnc45)ccc3F)N=C1N)S2(=O)=O [Example 131, N-(3-((1R,2R,5S)-4-amino-2,5-dimethyl-8,8-dioxido-8-thia-3-azabicyclo[3.2.1]oct-3-en-2-yl)-4-fluorophenyl)-7-chloropyrido[3,2-d]pyrimidin-4-amine] | – | – | – | 0.029 µM | 0.018 µM | 482 µM | – | –
8 | COc1cnc2c(Nc3ccc(F)c([C@@]4(C)N=C(N)[C@]5(C)CC[C@H]4S5(=O)=O)c3)ncnc2c1 [Example 133, N-(3-((1R,2R,5S)-4-amino-2,5-dimethyl-8,8-dioxido-8-thia-3-azabicyclo[3.2.1]oct-3-en-2-yl)-4-fluorophenyl)-7-methoxypyrido[3,2-d]pyrimidin-4-amine] | – | – | – | 0.096 µM | 0.026 µM | 1160 µM | – | –
9 | CC#CCOc1cnc2c(Nc3ccc(F)c([C@@]4(C)N=C(N)[C@@]5(C)CC[C@@H]4S5(=O)=O)c3)ncc(F)c2c1 [Example 134, N-(3-((1S,2R,5R)-4-amino-2,5-dimethyl-8,8-dioxido-8-thia-3-azabicyclo[3.2.1]oct-3-en-2-yl)-4-fluorophenyl)-3-(2-butyn-1-yloxy)-5-fluoro-1,7-naphthyridin-8-amine] | – | – | – | 0.001 µM | 0.004 µM | 1610 µM | – | –
10 | CC#CCOc1cnc2c(Nc3ccc(F)c([C@@]4(C)N=C(N)[C@]5(C)CC[C@H]4S5(=O)=O)c3)ncc(F)c2c1 [Example 135, N-(3-((1R,2R,5S)-4-amino-2,5-dimethyl-8,8-dioxido-8-thia-3-azabicyclo[3.2.1]oct-3-en-2-yl)-4-fluorophenyl)-3-(2-butyn-1-yloxy)-5-fluoro-1,7-naphthyridin-8-amine] | – | – | – | 0.003 µM | 0.021 µM | 614 µM | – | –
11 | C[C@]1(c2cc(Nc3ncc(F)c4cc(OCC5CC5)cnc34)ccc2F)N=C(N)[C@@]2(C)CC[C@@H]1S2(=O)=O [Example 137, N-(3-((1S,2R,5R)-4-amino-2,5-dimethyl-8,8-dioxido-8-thia-3-azabicyclo[3.2.1]oct-3-en-2-yl)-4-fluorophenyl)-3-(cyclopropylmethoxy)-5-fluoro-1,7-naphthyridin-8-amine] | – | – | – | 0.003 µM | 0.0654 µM | > 400 µM | – | –
12 | CC#CCOc1ccc(C(=O)Nc2ccc(F)c([C@@]3(C)N=C(N)[C@@]4(C)CC[C@@H]3S4(=O)=O)c2)c(F)c1 [Example 138, N-(3-((1S,2R,5R)-4-amino-2,5-dimethyl-8,8-dioxido-8-thia-3-azabicyclo[3.2.1]oct-3-en-2-yl)-4-fluorophenyl)-4-(2-butyn-1-yloxy)-2-fluorobenzamide] | – | – | – | 0.061 µM | 0.122 µM | > 400 µM | – | –
13 | CC(C)COc1cnc2c(Nc3ccc(F)c([C@@]4(C)N=C(N)[C@@]5(C)CC[C@@H]4S5(=O)=O)c3)nccc2n1 [Example 143, N-(3-((1S,2R,5R)-4-amino-2,5-dimethyl-8,8-dioxido-8-thia-3-azabicyclo[3.2.1]oct-3-en-2-yl)-4-fluorophenyl)-2-(2-methylpropoxy)pyrido[3,4-b]pyrazin-5-amine] | – | – | – | 0.009 µM | 0.164 µM | 150 µM | – | –
14 | CCCOc1cnc2c(Nc3ccc(F)c([C@@]4(C)N=C(N)[C@@]5(C)CC[C@@H]4S5(=O)=O)c3)nccc2n1 [Example 144, N-(3-((1S,2R,5R)-4-amino-2,5-dimethyl-8,8-dioxido-8-thia-3-azabicyclo[3.2.1]oct-3-en-2-yl)-4-fluorophenyl)-2-propoxypyrido[3,4-b]pyrazin-5-amine] | – | – | – | 0.004 µM | 0.071 µM | > 400 µM | – | –
15 | C[C@]1(c2cc(Nc3nccc4[nH]c(=O)cnc34)ccc2F)N=C(N)[C@@]2(CF)CC[C@@H]1S2(=O)=O [Example 148, 5-((3-((1S,2R,5R)-4-amino-5-(fluoromethyl)-2-methyl-8,8-dioxido-8-thia-3-azabicyclo[3.2.1]oct-3-en-2-yl)-4-fluorophenyl)amino)pyrido[3,4-b]pyrazin-2(1H)-one] | – | – | – | 0.016 µM | 0.019 µM | 217 µM | – | –
